The results in this text go back to patent US20190077795A1, “ARGININE […] INHIBITORS AND USES THEREOF” (Epizyme, Inc., priority 2014, published 2019).

A word on the IC50: it is the concentration at which inhibition is half-maximal.

Like-named read-outs stand apart in the source and are kept apart here.

One assay addresses human PRMT8 (Homo sapiens, UniProt Q9NR22). Briefly: PRMT8 Biochemical Assay. The settings on record: PRMT8 IC50 (uM), peptide substrate, 3H-SAM Flashplate assay.
Assay [1] concerns mono-methyl arginine in RKO cells. Briefly: RKO Methylation Assay, In Cell Western (ICW). It is filed as cell-based. The settings on record: 72 hours.
Another assay concerns the target T1, human PRMT1 (Homo sapiens, UniProt Q99873).
T1 construct: GST-tagged PRMT1; made in house; host or cells: High Five insect cells (baculovirus, pFastBac1)
Briefly: PRMT1 Biochemical Assay. The note with it: peptide substrate, 3H-SAM Flashplate assay; read-out: PRMT1 IC50. The gist of the method:
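GST-tagged PRMT1 from baculovirus-infected cells, preincubated with compounds 30 min at room temperature in 20 mM Bicine pH 7.6, 1 mM TCEP, 0.005% BSG, 0.002% Tween 20. Reaction started with ³H-SAM plus biotinylated peptide, stopped with 300 µM cold SAM.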

In another assay the target is T2, human PRMT6 (Homo sapiens, UniProt Q96LA8).
T2 construct: Flag-PRMT6-His; made in house; host or cells: HEK 293F cells (BacMam baculovirus, pFastBacMam)
The assay is described as follows: PRMT6 Biochemical Assay.

Setting [2] is: peptide substrate, 3H-SAM Flashplate assay, read-out: PRMT6 IC50.

Sequence of human PRMT8 (Q9NR22 whole entry): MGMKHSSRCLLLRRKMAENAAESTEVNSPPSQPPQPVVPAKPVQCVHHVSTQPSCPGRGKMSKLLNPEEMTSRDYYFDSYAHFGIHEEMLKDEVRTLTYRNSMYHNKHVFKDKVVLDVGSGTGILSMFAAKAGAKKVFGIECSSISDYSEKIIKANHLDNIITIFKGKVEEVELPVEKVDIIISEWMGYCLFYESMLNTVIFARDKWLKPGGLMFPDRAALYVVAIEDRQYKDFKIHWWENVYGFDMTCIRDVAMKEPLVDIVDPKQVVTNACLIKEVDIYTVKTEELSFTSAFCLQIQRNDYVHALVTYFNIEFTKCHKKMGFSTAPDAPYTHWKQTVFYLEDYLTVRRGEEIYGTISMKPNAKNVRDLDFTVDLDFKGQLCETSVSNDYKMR
T1 sequence (Q99873 with tags, fused parts or gaps): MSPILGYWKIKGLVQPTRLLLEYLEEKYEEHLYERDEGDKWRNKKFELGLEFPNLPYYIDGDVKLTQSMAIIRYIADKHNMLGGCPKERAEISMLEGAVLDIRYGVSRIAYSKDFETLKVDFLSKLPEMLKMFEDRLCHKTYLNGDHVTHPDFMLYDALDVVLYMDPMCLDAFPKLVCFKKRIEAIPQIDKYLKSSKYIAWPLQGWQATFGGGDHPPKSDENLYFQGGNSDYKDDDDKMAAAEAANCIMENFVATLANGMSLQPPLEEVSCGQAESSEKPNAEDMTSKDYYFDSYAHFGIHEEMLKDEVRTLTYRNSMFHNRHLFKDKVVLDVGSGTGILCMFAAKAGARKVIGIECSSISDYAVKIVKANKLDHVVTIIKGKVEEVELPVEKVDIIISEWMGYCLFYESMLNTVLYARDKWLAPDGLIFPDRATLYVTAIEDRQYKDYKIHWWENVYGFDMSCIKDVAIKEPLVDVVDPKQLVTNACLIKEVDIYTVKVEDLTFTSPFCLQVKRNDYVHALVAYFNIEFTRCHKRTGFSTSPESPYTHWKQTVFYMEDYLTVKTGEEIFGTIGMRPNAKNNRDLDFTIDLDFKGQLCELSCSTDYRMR
T2 sequence (Q96LA8 with tags, fused parts or gaps): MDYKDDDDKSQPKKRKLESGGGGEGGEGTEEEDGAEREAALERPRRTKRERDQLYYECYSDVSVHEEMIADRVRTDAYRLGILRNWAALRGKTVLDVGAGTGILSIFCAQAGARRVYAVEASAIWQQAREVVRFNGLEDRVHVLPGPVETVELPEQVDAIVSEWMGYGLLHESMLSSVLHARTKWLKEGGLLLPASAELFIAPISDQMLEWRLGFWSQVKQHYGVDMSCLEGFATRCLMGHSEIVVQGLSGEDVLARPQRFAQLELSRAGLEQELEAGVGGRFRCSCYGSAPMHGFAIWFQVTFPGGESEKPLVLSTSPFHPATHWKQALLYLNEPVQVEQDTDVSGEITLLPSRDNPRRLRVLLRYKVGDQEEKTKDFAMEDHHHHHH
Description for human PRMT8: S-adenosylmethionine (SAM), S-adenosylhomocysteine (SAH), bicine, Tween20, dimethylsulfoxide (DMSO), bovine skin gelatin (BSG), isopropyl-3-D-thiogalactopyranoside (IPTG), and Tris(2-carboxyethyl)phosphine hydrochloride solution (TCEP) were purchased from Sigma-Aldrich at the highest level of purity possible. ^3H-SAM was purchase from American Radiolabeled Chemicals with a specific activity of 80 Ci/mmol. 384-well streptavidin Flashplates were purchased from PerkinElmer.
E. coli (BL21(DE3) Gold, Stratagene) made competent by the CaCl2 method were transformed with the PRMT8 construct and ampicillin selection. Protein over-expression was accomplished by growing the PRMT8 expressing E. coli clone and inducing expression with 0.3 mM IPTG at 16° C. The culture was grown for 12 hours, harvested by centrifugation, and stored at −80° C. for purification.
GST-tagged PRMT8 was eluted with 50 mM Tris, 2 mM glutathione, pH 7.8. Pooled fractions were cleaved by thrombin (10U) and dialysed in buffer A. GST was removed by reloading the cleaved protein sample onto glutathione sepharose column and PRMT8 was collected in the flow-through fractions. PRMT8 was purified further by ceramic hydroxyapatite chromatography. The column was washed with 50 mM phosphate buffer, 100 mM NaCl, 5% glycerol, 5 mM β-mercaptoethanol, pH 7.8 and PRMT8 was eluted by 100 mM phosphate in the same buffer. Protein was concentrated and buffer was exchanged to 50 mM Tris, 300 mM NaCl, 10% glycerol, 5 mM β-mercaptoethanol, pH 7.8 by ultrafiltration.
General Procedure for PRMT8 Enzyme Assays on Peptide Substrates.
The assays were all performed in a buffer consisting of 20 mM Bicine (pH=7.6), 1 mM TCEP, 0.005% BSG, and 0.002% Tween 20, prepared on the day of use. […] DMSO (1 ul) was added to Columns 11, 12, 23, 24, rows A-H for the maximum signal control and 1 ul of SAH, a known product and inhibitor of PRMT8, was added to columns 11, 12, 23, 24, rows I-P for the minimum signal control. A cocktail (40 ul) containing the PRMT8 enzyme was added by Multidrop Combi (Thermo-Fisher). The compounds were allowed to incubate with PRMT8 for 30 min at room temperature, then a cocktail (10 ul) containing ^3H-SAM and peptide was added to initiate the reaction (final volume=51 ul). […] The assays were stopped by the addition of non-radiolabeled SAM (10 ul) to a final concentration of 400 uM, which dilutes the ^3H-SAM to a level where its incorporation into the peptide substrate is no longer detectable. 50 ul of the reaction in the 384-well polypropylene plate was then transferred to a 384-well Flashplate and the biotinylated peptides were allowed to bind to the streptavidin surface for at least 1 hour before being washed once with 0.1% Tween20 in a Biotek ELx405 plate washer. The plates were then read in a PerkinElmer TopCount plate reader to measure the quantity of ^3H-labeled peptide bound to the Flashplate surface, measured as disintegrations per minute (dpm) or alternatively, referred to as counts per minute (cpm).
Where dpm=disintegrations per minute, cmpd=signal in assay well, and min and max are the respective minimum and maximum signal controls.
Where top and bottom are the normally allowed to float, but may be fixed at 100 or 0 respectively in a 3-parameter fit. The Hill Coefficient normally allowed to float but may also be fixed at 1 in a 3-parameter fit. Y is the % inhibition and X is the compound concentration.

As for `CNCCN(C)Cc1c[nH]nc1-c1cc(OC2CCOC2)cc(C(F)(F)F)c1` (centres unmarked) [Compound 84], the concentration for half-maximal inhibition (IC50) at human PRMT8 is 0.228 µM; at human PRMT1 it was 20.7 nM; at human PRMT6 (setting [2]) it was 0.707 µM. For the same compound, the “ICW EC30” value in assay [1] came out at 4957 nM.
The corresponding values for `CNCCN(C)Cc1c[nH]nc1-c1ccc(N(C)CCOc2cccc(OC)c2)cc1` [Compound 57] are 0.042 µM, 11.8 nM, 0.00902 µM and 757.7 nM.
The corresponding values for `CNCCN(C)Cc1c[nH]nc1-c1ccc(OCCOc2cccc(C)c2)cc1` [Compound 153] are 0.0133 µM, 4.3 nM, 0.00315 µM and 177.6 nM.
The corresponding values for `CCC(CO)Oc1cc(-c2n[nH]cc2CN(C)CCNC)cc(C(F)(F)F)c1` (centres unmarked) [Compound 106] are 0.201 µM, 34 nM, 3.51 µM and 3700 nM.
As for `CNCCN(C)Cc1c[nH]nc1-c1ccc(N(C)C2CCOCC2)nc1` [Compound 117], the IC50 at human PRMT8 is 0.317 µM; on human PRMT1, 39.2 nM; at human PRMT6 (setting [2]), 2.32 µM. In addition, the “ICW EC30” value in assay [1] turned out to be 8433 nM.
Take `CNCCN(C)Cc1ccnn1C1CCC2(CCOC2)CC1` (centres unmarked) [Compound 54]: the IC50 on human PRMT8 was determined as 0.0535 µM; at human PRMT1, 11.2 nM; at human PRMT6 (setting [2]) it was 0.0329 µM. In assay [1], the “ICW EC30” value is 680 nM.
The corresponding values for `CNCCN(C)Cc1c[nH]nc1-c1ccc(OC(C)C)nc1` [Compound 83] are 0.0337 µM, 20.5 nM, 0.069 µM and 200 nM.
On to `CCOCC(C)c1cc(OCCOC)cc(-c2n[nH]cc2CN(C)CCNC)c1` (centres unmarked) [Compound 132], for which the IC50 was 0.15 µM at human PRMT8, 49.4 nM at human PRMT1 and over 10 µM on human PRMT6 (setting [2]). Besides, the “ICW EC30” value in assay [1] is 3608 nM.
Regarding `CNCCN(C)Cc1c[nH]nc1-c1cc(OC)c(CC(C)C)c(OC)c1` [Compound 108], the figures for the IC50 on human PRMT8, on human PRMT1 and against human PRMT6 (PRMT6 IC50 (uM)) were 0.0712 µM, 35.7 nM and 0.824 µM, respectively. Also, in assay [1], the “ICW EC30” value stood at 2967 nM.
With `CNCCN(C)Cc1cnn(C2CCC2)c1-c1ccc(OC(C)C)cc1` [Compound 141], the IC50 at human PRMT8 is 0.056 µM; at human PRMT1 it was 65.8 nM; on human PRMT6 (setting [2]), 0.0869 µM. Also, in assay [1], the “ICW EC30” value worked out at 496 nM.
The corresponding values for `CNCCN(C)Cc1c[nH]nc1-c1ccc(N(C)C2CCOCC2)cc1` [Compound 111] are 0.252 µM, 36.7 nM, 0.955 µM and 1040 nM.
With `CNCCN(C)Cc1c[nH]nc1-c1ccc(C#N)cc1` [Compound 74], the IC50 against human PRMT8 was determined as 0.0231 µM; at human PRMT1, 16.1 nM; against human PRMT6 (PRMT6 IC50 (uM)), 0.027 µM. In assay [1], the “ICW EC30” value is 541 nM.
In the case of `CNCCN(C)Cc1c[nH]nc1-c1ccc(OCCOc2ccc(C)cc2)cc1` [Compound 42], the IC50 amounted to 0.0514 µM on human PRMT8, 8.9 nM on human PRMT1 and 0.00498 µM on human PRMT6 (setting [2]). Moreover, the “ICW EC30” value in assay [1] was 185 nM.
The corresponding values for `CNCCN(C)Cc1c[nH]nc1-c1cc(F)c(OCC2CCC2)c(C(F)(F)F)c1` [Compound 5] are 0.0122 µM, 4.58 nM, 0.00685 µM and 468 nM.
The corresponding values for `CNCCN(C)Cc1c[nH]nc1-c1cc(Cl)c(OCC(C)C)c(C(F)(F)F)c1` [Compound 56] are 0.0168 µM, 11.5 nM, 0.0435 µM and 765 nM.
In the case of `CNCCN(C)Cc1c[nH]nc1-c1ccc(OCCOc2cccc(OCCC(O)CO)c2)cc1` (centres unmarked) [Compound 31], the IC50 on human PRMT8 is 0.02 µM; at human PRMT1, 7.08 nM; at human PRMT6 (setting [2]) it was 0.00432 µM. Further, the “ICW EC30” value in assay [1] is 2325.4 nM.
The corresponding values for `CN(CCN)Cc1c[nH]nc1-c1cc(F)c(Cl)c(C(F)(F)F)c1` [Compound 30] are 0.0608 µM, 7.05 nM, 0.0135 µM and 648 nM.
Turning to `CNCCN(C)Cc1c[nH]nc1-c1ccc(OCCOc2ccc(Oc3ccccc3)cc2)cc1` [Compound 6], the IC50 on human PRMT8 came out at 0.0192 µM; at human PRMT1 it was 4.79 nM; at human PRMT6 (setting [2]), 0.00343 µM. Besides, the “ICW EC30” value in assay [1] worked out at 328.2 nM.
The corresponding values for `CNCCN(C)Cc1c[nH]nc1-c1cc(OCCOC)cc(C(C)C)c1` [Compound 95] are 0.0843 µM, 25.8 nM, 0.771 µM and 726 nM.
The like results for `CCN(CCOc1cccc(OC)c1)c1ccc(-c2n[nH]cc2CN(C)CCNC)cc1` [Compound 45] were, in that order, 0.0367 µM, 9.26 nM, 0.0331 µM and 1140 nM.
In the case of `CNCCN(C)Cc1c[nH]nc1-c1cnc(OCCCOC)c(C(F)(F)F)c1` [Compound 82], the figures for the half-maximal inhibitory concentration (IC50) against human PRMT8, on human PRMT1 and on human PRMT6 (setting [2]) were 0.189 µM, 20.3 nM and 0.0777 µM, respectively. In addition, the “ICW EC30” value in assay [1] turned out to be 4060 nM.
The like results for `CNCCN(C)Cc1c[nH]nc1-c1ccc(OCCOc2cccc(CO)c2)cc1` [Compound 143] were, in that order, 0.0258 µM, 6.69 nM, 0.00448 µM and 544.3 nM.
In the case of `CNCCN(C)Cc1c[nH]nc1-c1cc(F)c(OC2COC2)c(C(F)(F)F)c1` [Compound 23], the half-maximal inhibitory concentration (IC50) is 0.0608 µM at human PRMT8, 6.47 nM on human PRMT1 and 0.0169 µM at human PRMT6 (setting [2]). For the same compound, in assay [1], the “ICW EC30” value stood at 1296 nM.
Regarding `CNCCN(C)Cc1c[nH]nc1-c1ccc(OCCOc2ccc(C(C)C)cc2)cc1` [Compound 144], the half-inhibitory concentration (IC50) against human PRMT8 is 0.03 µM; at human PRMT1, 6.43 nM; on human PRMT6 (setting [2]), 0.00574 µM. Besides, in assay [1], the “ICW EC30” value came to 654.6 nM.
`CNCCN(C)Cc1c[nH]nc1-c1ccc(OCCOc2cccc(OCCN3CCOCC3)c2)cc1` [Compound 8]: the IC50 against human PRMT8 worked out at 0.00939 µM; at human PRMT1 it was 4.91 nM; at human PRMT6 (setting [2]) it was 0.00449 µM. Besides, the “ICW EC30” value in assay [1] was determined as 233.7 nM.
In the case of `CNCCN(C)Cc1c[nH]nc1-c1cc(Cl)c(OCC2CCC2)c(Cl)c1` [Compound 2], the half-maximal inhibitory concentration (IC50) came out at 0.0218 µM against human PRMT8, 3.61 nM on human PRMT1 and 0.012 µM at human PRMT6 (setting [2]). For the same compound, the “ICW EC30” value in assay [1] was 304 nM.
The like results for `CNCCN(C)Cc1c[nH]nc1-c1ccc(OCCOc2ccc(OC(F)(F)F)cc2)cc1` [Compound 140] were, in that order, 0.0526 µM, 6.83 nM, 0.00703 µM and 470 nM.
`CNCCN(C)Cc1c[nH]nc1-c1cc(CC(F)(F)F)cc(OCCOC)c1` [Compound 70]: the IC50 against human PRMT8 came out at 0.0511 µM; at human PRMT1 it was 15.2 nM; on human PRMT6 (PRMT6 IC50 (uM)), 1.27 µM. Besides, in assay [1], the “ICW EC30” value is 494 nM.
The like results for `CCC(CC)Oc1ccc(-n2nccc2CN(C)CCNC)cc1` [Compound 18] were, in that order, 0.0153 µM, 5.86 nM, 0.0678 µM and 91.46 nM.
The like results for `CNCCN(C)Cc1c[nH]nc1-c1cc(C)c(OCC2CC2)c(C(F)(F)F)c1` [Compound 43] were, in that order, 0.015 µM, 8.97 nM, 0.0326 µM and 475 nM.
For `CNCCN(C)Cc1c[nH]nc1-c1ccc(OCCCOC)c(OC2CCOCC2)c1` [Compound 64], the figures for the half-inhibitory concentration (IC50) against human PRMT8, on human PRMT1 and on human PRMT6 (setting [2]) were 0.249 µM, 13.9 nM and 0.0535 µM, respectively. For the same compound, the “ICW EC30” value in assay [1] stood at 4628 nM.
The like results for `CNCCN(C)Cc1c[nH]nc1-c1ccc(OCCOc2cccc(N3CCOCC3)c2)cc1` [Compound 49] were, in that order, 0.0337 µM, 10.5 nM, 0.00705 µM and 746.8 nM.
The like results for `CNCCN(C)Cc1cnn(C)c1-c1cccc(CC(C)C)c1` [Compound 129] were, in that order, 0.0877 µM, 47.5 nM, 0.219 µM and 7415 nM.
The like results for `CNCCN(C)Cc1c[nH]nc1-c1cc(OCCOC)cc(C(C)(C)C)c1` [Compound 109] were, in that order, 0.203 µM, 36.1 nM, 7.12 µM and 1928 nM.
Regarding `CNCCN(C)Cc1c[nH]nc1-c1ccc(N2CC3CCCC3C2)nc1` (centres unmarked) [Compound 58], the concentration for half-maximal inhibition (IC50) against human PRMT8 worked out at 0.0254 µM; on human PRMT1, 11.9 nM; at human PRMT6 (setting [2]), 0.00835 µM. The “ICW EC30” value in assay [1] is 416.5 nM.
Consider `CNCCN(C)Cc1c[nH]nc1-c1ccc(OCCC(O)CO)cc1` (centres unmarked) [Compound 125], for which the IC50 is 0.269 µM against human PRMT8, 45.5 nM on human PRMT1 and 0.0548 µM on human PRMT6 (setting [2]). The “ICW EC30” value in assay [1] stood at 10450 nM.
The like results for `CNCCN(C)Cc1c[nH]nc1-c1ccc(OC(COc2ccccc2)COc2ccccc2)cc1` [Compound 146] were, in that order, 0.0375 µM, 7.32 nM, 0.00624 µM and 1403 nM.
The corresponding values for `CNCCN(C)Cc1ccnn1C1CCC2(CCCO2)CC1` (centres unmarked) [Compound 63] are 0.0445 µM, 13.1 nM, 0.0317 µM and 172.7 nM.
